Reference: patent EP4667465A1, “SALT OF BENZO-NITROGEN HETEROAROMATIC RING DERIVATIVE, CRYSTALLINE FORM, AND PHARMACEUTICAL USE THEREOF” (Haisco Pharmaceutical Group Co., Ltd., priority 2023, dated 2024)

Experiments:
[1] = Stability of the crystalline form (purity under accelerated, intermediate and long-term storage); assay type: physicochemical
[2] = Hygroscopicity (sorption isotherm curve); assay type: physicochemical; conditions: at 80% RH
Description: According to the description of the hygroscopicity characteristics and the definition of hygroscopic weight gain in the Chinese Pharmacopoeia 2020 Edition, Volume IV, General Chapter 9103: Guidelines for Hygroscopicity Trials for Pharmaceuticals, • deliquescence: absorbing enough moisture to form a liquid; • extremely hygroscopic: a hygroscopic weight gain of not less than 15%; • hygroscopic: a hygroscopic weight gain of less than 15% but no less than 2%; • slightly hygroscopic: a hygroscopic weight gain of less than 2% but no less than 0.2%; and • non-hygroscopic or practically non-hygroscopic: a hygroscopic weight gain of less than 0.2%.

[3] = Pharmacokinetic test in rats; assay type: in vivo, SD rats
Protocol: Experimental objective: in this experiment, a single dose of the test substance was administered to SD rats intravenously and intragastrically, and the concentration of the test substance in plasma of the rats was measured to evaluate the pharmacokinetic characteristics of the test substance in the rats. Experimental animals: male SD rats, 200-250 g, 6-8 weeks old, 6 rats/compound, purchased from Chengdu Dossy Experimental Animals Co., Ltd. Experimental method: on the day of the experiment, 6 SD rats were randomly grouped according to their body weights. […] Sampling: before and after the administration, 0.15 mL of blood was taken from the orbits under isoflurane anesthesia and placed in an EDTAK2 centrifuge tube. Centrifugation was carried out at 5000 rpm at 4°C for 10 min, and the plasma was collected. The plasma collection time points for IV&PO groups were 0, 5 min, 15 min, 30 min, 1 h, 2 h, 4 h, 6 h, 8 h, and 24 h. Before analysis and detection, all samples were stored at -60°C. The samples were analyzed quantitatively by LC-MS/MS.

[4] = Pharmacokinetic test in monkeys; assay type: in vivo, cynomolgus monkeys; conditions: compared with the trifluoroacetate of LNP023, in words
Protocol: Experimental objective: in this experiment, a single dose of test substance was administered to cynomolgus monkeys intravenously and intragastrically, and the concentration of the test substance in plasma of the monkeys was measured to evaluate the pharmacokinetic characteristics of the test substance in the monkeys.
Experimental animals: male cynomolgus monkeys, 3-5 kg, 3-6 years old, 6 monkeys/compound, purchased from Suzhou Xishan Biotechnology Co., Ltd.
Experimental method: on the day of the experiment, 6 monkeys were randomly grouped according to their body weights. The cynomolgus monkeys were fasted with water available for 14-18 h one day before the administration, and were fed 4 h after the administration.
Sampling: before and after the administration, 1.0 mL of blood was taken from the limb veins and placed in an EDTAK2 centrifuge tube. Centrifugation was carried out at 5000 rpm at 4°C for 10 min, and the plasma was collected.
The plasma collection time points for IV&PO groups were 0, 5 min, 15 min, 30 min, 1 h, 2 h, 4 h, 6 h, 8 h, 10 h, 12 h, and 24 h.
Before analysis and detection, all samples were stored at -60°C. The samples were analyzed quantitatively by LC-MS/MS.

Caco-2 cells = conditions: Caco2, compared with the trifluoroacetate of LNP023; in words
Protocol: (§1) In the experiment, a monolayer of Caco-2 cells was used, and incubated in triplicate in a 96-well Transwell plate. A transport buffer solution (HBSS, 10 mM HEPES, pH 7.4 ± 0.05) containing the compound of the present invention (2 µM) or the control compound digoxin (10 µM), nadolol (2 µM) or metoprolol (2 µM) was added to the administration end hole on the apical side or basal side. A DMSO-containing transport buffer solution was added to the corresponding receiving end hole. After incubation for 2 hours at 37°C ± 1°C, the cell plate was removed, and an appropriate amount of samples was taken from both the apical side and basal side and transferred to a new 96-well plate. Subsequently, acetonitrile containing an internal standard was added to precipitate the protein. The samples were analyzed using LC MS/MS, and the concentrations of the compound of the present invention and the control compound were determined. Concentration data were used to calculate apparent permeability coefficients for transport from the apical side to the basal side, and from the basal side to the apical side of the cell monolayer, and thus to calculate the efflux ratio. The integrity of the cell monolayer after 2 hours of incubation was evaluated by leakage of Lucifer Yellow.

in vitro = conditions: human, Caco-2, pH 7.4
Protocol: as §1

complement factor B = complement factor B (Homo sapiens, UniProt P00751); conditions: in words; disclosed in PCT/CN 2022/113216; cited from earlier work
C3a level = conditions: in words; disclosed in PCT/CN 2022/113216; cited from earlier work
[5] = male, rat, po, SD rats, plasma, i.g. (10 mg/kg)
[6] = in rats, compared with LNP023, in words

Chain of complement factor B (P00751 26-764): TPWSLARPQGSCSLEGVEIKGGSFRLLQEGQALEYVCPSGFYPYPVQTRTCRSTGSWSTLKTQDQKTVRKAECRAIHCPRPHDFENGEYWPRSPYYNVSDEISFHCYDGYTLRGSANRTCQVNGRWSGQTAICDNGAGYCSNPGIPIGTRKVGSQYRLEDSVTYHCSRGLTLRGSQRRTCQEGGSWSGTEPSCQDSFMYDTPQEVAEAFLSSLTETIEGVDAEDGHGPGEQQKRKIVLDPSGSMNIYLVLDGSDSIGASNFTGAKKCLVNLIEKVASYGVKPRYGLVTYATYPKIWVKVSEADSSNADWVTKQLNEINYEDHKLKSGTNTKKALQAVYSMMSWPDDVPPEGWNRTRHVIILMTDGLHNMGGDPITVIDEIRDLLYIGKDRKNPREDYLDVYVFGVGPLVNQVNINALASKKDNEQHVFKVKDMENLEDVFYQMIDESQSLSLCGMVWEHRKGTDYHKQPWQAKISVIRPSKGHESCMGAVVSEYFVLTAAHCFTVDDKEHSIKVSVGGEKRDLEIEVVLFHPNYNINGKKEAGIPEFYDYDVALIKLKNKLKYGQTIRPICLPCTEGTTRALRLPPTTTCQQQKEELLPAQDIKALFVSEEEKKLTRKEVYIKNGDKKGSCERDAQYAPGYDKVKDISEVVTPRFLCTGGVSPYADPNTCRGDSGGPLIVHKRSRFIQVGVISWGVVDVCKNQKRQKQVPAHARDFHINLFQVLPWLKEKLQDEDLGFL

For `[2H]C([2H])([2H])Oc1cc(C)c2[nH]ccc2c1CN1CC[C@@H](C2CC2)C[C@H]1c1ccc(C(=O)O)cc1` [4-((2S,4R)-4-cyclopropyl-1-((5-(methoxy-d3)-7-methyl-1H-indol-4-yl)methyl)piperidin-2-yl)benzoic acid], the Purity ([1]; 0 day) was 97.80%, the Purity ([1]; Accelerated: 40°C ± 2°C, 75% ± 5% RH, 1 month) was 97.70% and the Purity ([1]; Accelerated: 40°C ± 2°C, 75% ± 5% RH, 2 months) was 97.70%. It also gave a Purity ([1]; Accelerated: 40°C ± 2°C, 75% ± 5% RH, 3 months) of 97.90%, a Purity ([1]; Accelerated: 40°C ± 2°C, 75% ± 5% RH, 6 months) of 97.80% and a Purity ([1]; Intermediate: 25°C ± 2°C, 60% ± 5% RH, 3 months) of 98.00%. It also gave a Purity ([1]; Intermediate: 25°C ± 2°C, 60% ± 5% RH, 6 months) of 97.80%, a Purity ([1]; Long-term: 2°C - 8°C, 3 months) of 97.90% and a Purity ([1]; Long-term: 2°C - 8°C, 6 months) of 97.70%. The stability ([1]; under accelerated, intermediate and long-term conditions, conclusion in words) was “good stability” and the hygroscopic weight gain [2] was “about 1.15%”.

`CCO[C@H]1CCN(Cc2c(OC)cc(C)c3[nH]ccc23)[C@H](c2ccc(C(=O)O)cc2)C1` [LNP023] showed a bioavailability ([3]; male, rat, plasma, po, SD rats, i.g. (10 mg/kg)) of 49%, a Cmax [3, 5] of 867 ng/mL and a Tmax [3, 5] of 3.5 h. The half-life [3, 5] was 3.39 h and the AUC(0-t) ([3]; male, rat, po, SD rats, plasma, i.g. (10 mg/kg), read-out: AUC0-24h) was 9870 ng·h/mL.

With `[2H]C([2H])([2H])Oc1cc(C)c2[nH]ccc2c1CN1CC[C@@H](C2CC2)C[C@H]1c1ccc(C(=O)O)cc1` [Trifluoroacetate of compound 1, 4-((2S,4R)-4-cyclopropyl-1-((5-(methoxy-d3)-7-methyl-1H-indol-4-yl)methyl)piperidin-2-yl)benzoic acid] the maximum plasma concentration [3, 6] was “higher”, the oral bioavailability [3, 6] was “higher” and the bioavailability [4] was “higher”. The oral exposure [4] was “higher”, the permeability (Caco-2 cells) was “better” and the Papp A→B at 2 h, 2 µM (in vitro) was 1.77 ×10⁻⁶ cm/s. The Papp B→A at 2 h, 2 µM (in vitro) was 19.4 ×10⁻⁶ cm/s.

In the case of `[2H]C([2H])([2H])Oc1cc(C)c2[nH]ccc2c1CN1CC[C@@H](C2CC2)C[C@H]1c1ccc(C(=O)O)cc1` [compound 1, 4-((2S,4R)-4-cyclopropyl-1-((5-(methoxy-d3)-7-methyl-1H-indol-4-yl)methyl)piperidin-2-yl)benzoic acid], the “inhibitory activity against complement factor B” value (complement factor B) is given as “good” and the “inhibition rate of C3a level in vivo” value (C3a level) is given as “good”.
